These results are taken from ChEMBL document CHEMBL1201862, “PubChem BioAssay data set” (2004).

Test systems include OVCAR-8; SN12C; OVCAR-5; SK-MEL-28; SF-295; HCT-15; NCI-H522; HL-60; RXF 393; HOP-92; NCI-H460; SNB-19; IGROV-1; CCRF-CEM; K562; SF-539; TK-10; ACHN; M14.
Test in all cases: DTP human tumour cell line panel, 48 h

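48-hour exposure; five concentrations; linearly interpolated endpoints. At the GI50, growth is halved.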 Activity calls are given as the source filed them. No stated cut-off is given here; in the data, active = GI50 up to about 1.1 µM and inactive = higher.

Take `N/C(=N\O)N/N=C/c1ccc2c(c1)OCCO2`: the GI50 is 8.49 µM (inactive) with OVCAR-8; 29.6 µM (inactive) with SN12C; 4.72 µM (inactive) with OVCAR-5; 21.4 µM (inactive) in the experiment on SK-MEL-28; 6.59 µM (inactive) with SF-295; 10.3 µM in the experiment on HCT-15. Besides, the GI50 is 6.65 µM (inactive) with NCI-H522; 18.2 µM (inactive) in the experiment with HL-60; 27.9 µM (inactive) in the experiment with RXF 393; 27 µM (inactive) with HOP-92; 7.55 µM (inactive) in the experiment with NCI-H460; 9.82 µM (inactive) with SNB-19. The GI50 with IGROV-1 is 12.4 µM (inactive); in the experiment on CCRF-CEM, 33.7 µM (inactive); in the experiment on K562 it was 7.85 µM (inactive); in the experiment on SF-539, 17.1 µM (inactive).

Consider `CC1(c2ccc(F)cc2)C(C#N)C(=O)NC(=O)C1C#N` (configuration not stated), for which the GI50 with TK-10, in the experiment on ACHN, in the experiment with OVCAR-8, with SN12C, in the experiment with OVCAR-5 and with SK-MEL-28 was > 100 µM (inactive) each time. In addition, the GI50 is > 100 µM (inactive) in the experiment on SF-295; greater than 100 µM in the experiment with HCT-15; > 100 µM (inactive) in the experiment on NCI-H522; > 100 µM (inactive) in the experiment with HL-60; 60.1 µM (inactive) with RXF 393; > 100 µM (inactive) in the experiment on HOP-92. Besides, the GI50 with NCI-H460, in the experiment with M14, in the experiment with SNB-19, with IGROV-1, in the experiment with CCRF-CEM and in the experiment with K562 was > 100 µM (inactive) in each case. In addition, the GI50 in the experiment on SF-539 was > 100 µM (inactive).

For `c1ccc(C2N=C(c3ccccn3)C(c3ccccn3)=NC2c2ccccc2)cc1` (configuration not stated), the GI50 in the experiment with TK-10, in the experiment on ACHN, in the experiment on OVCAR-8, with OVCAR-5, in the experiment with SK-MEL-28 and with SF-295 was > 100 µM (inactive) in each case. In addition, the GI50 with HCT-15 is greater than 100 µM; in the experiment on NCI-H522 it was > 100 µM (inactive); with HL-60, > 100 µM (inactive); in the experiment on RXF 393, > 100 µM (inactive); in the experiment on HOP-92, > 100 µM (inactive); with NCI-H460, > 100 µM (inactive). Moreover, the GI50 was > 100 µM (inactive) with M14; 19.1 µM (inactive) with SNB-19; > 100 µM (inactive) in the experiment on IGROV-1; > 100 µM (inactive) in the experiment with CCRF-CEM; > 100 µM (inactive) in the experiment with K562; > 100 µM (inactive) in the experiment with SF-539.

Turning to `NCc1ccc(-c2ccc(-c3ccc(-c4ccc(CN)s4)s3)s2)s1`, the GI50 with TK-10, with ACHN, in the experiment with OVCAR-8, with SN12C, in the experiment on OVCAR-5 and with SK-MEL-28 was > 100 µM (inactive) throughout. Further, the GI50 in the experiment on SF-295 is > 100 µM (inactive); with HCT-15 it was greater than 100 µM; in the experiment with NCI-H522, > 100 µM (inactive); in the experiment with HL-60, > 100 µM (inactive); in the experiment on RXF 393, > 100 µM (inactive); in the experiment on HOP-92 it was > 100 µM (inactive). Besides, the GI50 with M14, in the experiment with SNB-19, in the experiment on IGROV-1, in the experiment with CCRF-CEM, in the experiment with K562 and in the experiment with SF-539 was > 100 µM (inactive) each time.

Turning to `O=C1c2ccccc2-c2cccc3ccc(Cc4ccc5ccccc5c4)c1c23`, the GI50 with TK-10, in the experiment with ACHN, in the experiment with OVCAR-8, with SN12C, in the experiment on OVCAR-5 and in the experiment on SK-MEL-28 was > 100 µM (inactive) each time. Moreover, the GI50 with SF-295 was > 100 µM (inactive); in the experiment on HCT-15 it was greater than 100 µM; in the experiment with NCI-H522, 15.6 µM (inactive); in the experiment on HL-60, > 100 µM (inactive); with RXF 393, 48.2 µM (inactive); with HOP-92, 49.4 µM (inactive). Further, the GI50 is > 100 µM (inactive) with NCI-H460; > 100 µM (inactive) in the experiment on M14; > 100 µM (inactive) in the experiment with SNB-19; > 100 µM (inactive) in the experiment with IGROV-1; > 100 µM (inactive) with CCRF-CEM; 29.4 µM (inactive) in the experiment on K562. The GI50 in the experiment with SF-539 was > 100 µM (inactive).

In the case of `CC(C)(C)OC(=O)NCCC(=O)NC1(c2cc3ccccc3s2)CCCCC1`, the GI50 with TK-10 was 29 µM (inactive); with ACHN, 24.5 µM (inactive); with OVCAR-8 it was 17.5 µM (inactive); in the experiment with SN12C it was 18.3 µM (inactive); with OVCAR-5, 19.7 µM (inactive); in the experiment with SK-MEL-28, 19.1 µM (inactive). Further, the GI50 with SF-295 was 18.4 µM (inactive); with HCT-15, 15.1 µM; in the experiment with NCI-H522 it was 12.5 µM (inactive); in the experiment with HL-60, 16.7 µM (inactive); in the experiment with RXF 393, 12.8 µM (inactive); in the experiment on HOP-92, 16.6 µM (inactive). The GI50 in the experiment with NCI-H460 was 14.8 µM (inactive); in the experiment on M14, 18.4 µM (inactive); with SNB-19, 17.4 µM (inactive); in the experiment with IGROV-1, 17.3 µM (inactive); in the experiment with CCRF-CEM, 12.5 µM (inactive); with K562, 12.3 µM (inactive). The GI50 in the experiment on SF-539 was 15 µM (inactive).

Take `CC1(C)CCSC(/C=C/c2ccccc2)=N1`: the GI50 was 18.2 µM (inactive) in the experiment on TK-10; 17.5 µM (inactive) in the experiment with ACHN; 15.5 µM (inactive) with OVCAR-8; 20.2 µM (inactive) in the experiment with OVCAR-5; 19.3 µM (inactive) in the experiment on SK-MEL-28; 19.9 µM (inactive) in the experiment on SF-295. In addition, the GI50 was 9.77 µM in the experiment with HCT-15; 17 µM (inactive) in the experiment on NCI-H522; 33.1 µM (inactive) with HL-60; 21.6 µM (inactive) with RXF 393; 13.4 µM (inactive) in the experiment with HOP-92; 12.1 µM (inactive) in the experiment on NCI-H460. For the same compound, the GI50 was 13.2 µM (inactive) in the experiment with M14; 20.1 µM (inactive) in the experiment on SNB-19; 20.6 µM (inactive) with IGROV-1; 21.5 µM (inactive) in the experiment on CCRF-CEM; > 100 µM (inactive) with K562; 19.8 µM (inactive) with SF-539.

For the compound `CCOC(=O)c1cc(Cl)ccc1OC(N)=O`, the GI50 in the experiment on OVCAR-8 is > 100 µM (inactive); in the experiment on SN12C, > 100 µM (inactive); in the experiment with OVCAR-5 it was > 100 µM (inactive); with SK-MEL-28 it was > 100 µM (inactive); in the experiment on SF-295, > 100 µM (inactive); in the experiment with HCT-15, greater than 100 µM. In addition, the GI50 with HL-60, in the experiment with RXF 393, in the experiment with HOP-92, in the experiment with NCI-H460, in the experiment with SNB-19 and in the experiment on IGROV-1 was > 100 µM (inactive) in each case. Also, the GI50 with CCRF-CEM, with K562 and with SF-539 was > 100 µM (inactive) each time.

As to `N/C(=N/O)N/N=C\c1cc(Cl)cc(Cl)c1O`, the GI50 in the experiment on OVCAR-8 was 2.38 µM (inactive); with SN12C, 1.62 µM (inactive); with OVCAR-5, 7.36 µM (inactive); with SK-MEL-28 it was 14.1 µM (inactive); with SF-295 it was 0.791 µM (active); in the experiment on HCT-15 it was 2.02 µM. Besides, the GI50 was 3.47 µM (inactive) in the experiment on NCI-H522; 0.0116 µM (active) in the experiment on HL-60; 5.05 µM (inactive) with RXF 393; 7.26 µM (inactive) with HOP-92; 0.0705 µM (active) in the experiment with NCI-H460; 2.27 µM (inactive) with SNB-19. For the same compound, the GI50 was 6.97 µM (inactive) in the experiment with IGROV-1, 0.193 µM (active) in the experiment on CCRF-CEM, 3.06 µM (inactive) in the experiment with K562 and 1.64 µM (inactive) in the experiment with SF-539.

As to `O=[N+]([O-])c1cc(C(F)(F)F)cc2c1SC1=Nc3ccccc3CN12`, the GI50 with OVCAR-8 was > 100 µM (inactive); in the experiment on SN12C, > 100 µM (inactive); in the experiment on OVCAR-5, > 100 µM (inactive); in the experiment on SK-MEL-28 it was > 100 µM (inactive); in the experiment with SF-295 it was > 100 µM (inactive); in the experiment on HCT-15, greater than 100 µM. The GI50 in the experiment on NCI-H522, in the experiment with HL-60, in the experiment with RXF 393, in the experiment with HOP-92, in the experiment on NCI-H460 and in the experiment on SNB-19 was > 100 µM (inactive) throughout. The GI50 with IGROV-1, with CCRF-CEM, in the experiment with K562 and with SF-539 was > 100 µM (inactive) in each case.

With `CC1(C)OCC=CCO1`, the GI50 in the experiment on TK-10, in the experiment with ACHN, in the experiment with OVCAR-8, with SN12C, in the experiment with OVCAR-5 and in the experiment on SK-MEL-28 was > 100 µM (inactive) each time. In addition, the GI50 in the experiment on SF-295 was > 100 µM (inactive); in the experiment with NCI-H522, 69.8 µM (inactive); in the experiment with HL-60, 71.4 µM (inactive); with RXF 393, > 100 µM (inactive); in the experiment on HOP-92, > 100 µM (inactive); in the experiment on NCI-H460 it was > 100 µM (inactive). The GI50 in the experiment with M14 is > 100 µM (inactive); in the experiment with SNB-19 it was > 100 µM (inactive); with IGROV-1, > 100 µM (inactive); in the experiment with CCRF-CEM, 62.5 µM (inactive); in the experiment on K562, 67.8 µM (inactive); in the experiment on SF-539 it was 67.8 µM (inactive).

As a reminder, the GI50 is the concentration giving 50% growth inhibition.
